This is an account of results in patent US20200268711A1, “Use Of Carbamate Compound For Reducing Or Treating Developmental Disorders Including Fragile X Syndrome, Angelman Syndrome Or Rett Syndrome” (SK BIOPHARMACEUTICALS CO., LTD., priority 2017, published 2020).

Molecules are shown by their SMILES.

Holding throughout (type): in vivo
In assay [1] the test system is Fmr1 gene-deficient mouse. Briefly: Open field test (locomotor activity, rearing) in Fmr1 gene-deficient mouse model. As to conditions: 20 mg/kg i.p. once a day, day 4 of administration; 60 minutes; in comparison with the vehicle administration group. As to the method:
(§1) Male FVB.129P2-Pde6b^+ Tyr^c-ch Fmr1^tm1Cgr/J gene-deficient mice were purchased from Jackson Laboratories. After purchase, the experimental animals were maintained under a controlled lighting environment (12 hours lighting/12 hours non-lighting) and maintained at a temperature of 20-23° C. and about 50% relative humidity. Food and water were provided ad libitum. Mice were randomly divided into groups. The drugs were administered once a day for 6 days at 8 weeks of age. The test was carried out under lighting.
(§2) Test Compound was dissolved in 30% PEG 300, and two doses of 10 mg/kg and 20 mg/kg were used. Test Compound was prepared at a volume of 10 ml/kg and administered intraperitoneally 30 minutes before the test.
1. Locomotor activity: Locomotor activity test was performed on day 4 of administration in the course of administering daily for 6 days in 8-week-old mice.
A Plexiglas square chamber (27.3×27.3×20.3 cm) surrounded by infrared rays was used to measure the horizontal and vertical movements. Mice were acclimatized to the laboratory for at least 1 hour before the test and then placed in the center of the chamber to measure activity in the open field for 1 hour. […] The distance was measured by the breakage of the horizontal light beam by the movement of the mouse. […]
The data were analyzed by ANOVA, and if appropriate, Fisher PLSD post-hoc analysis was performed using Statview software. […]

The subject of assay [2] is Fmr1 gene-deficient mouse. Briefly: Fear conditioning test (contextual and cued) in Fmr1 gene-deficient mouse model. As to conditions: day 6; for Freezing during contextual fear conditioning test: in comparison with the vehicle administration group. As to the method: as §1, §2
2. Fear conditioning test: On day 5 and day 6 of administration, and 30 minutes after administration, training and drug efficacy tests were carried out, respectively. The test was performed using a fear conditioning system manufactured by Coulbourn Instruments (PA, USA).
Training was done 30 minutes after administration on day 5 of administration. The mice were placed in a conditioning chamber and accustomed to the environment for 120 seconds, and then exposed to 6 kHz, 75 dB sound stimulus (conditioned stimulus) for 20 seconds. 30 seconds after the end of the conditioned stimulation, 0.5 mA electrostimulation shock (unconditioned stimulus) was applied to the mouse paws. Mice were left in the conditioning chamber for an additional 60 seconds and then returned to the original cage.
On the morning of day 6, 30 minutes after administration mice were placed in the same chamber as the previous day, and then trained for 5 minutes without shock or other obstructions in order to perform a drug efficacy test for contextual memory. On day 6, after 4 hours of the contextual conditioning test, a drug efficacy test was performed on cued memory by stimulus signals. The mice were exposed to a new environment for 2 minutes (before the stimulation signal), and conditions and stimulation were applied three times in total for 20 seconds. Freezing behavior was defined as the complete loss of movement and was captured using a video system and FreezeView software (Coulbourn Instrument Penn., USA). The chamber was cleaned with 70% ethanol with each mouse change.
The data were analyzed by ANOVA, and if appropriate, Fisher PLSD post-hoc analysis was performed using Statview software. The effect was defined as significant when p<0.05. Results are represented as mean values ±standard error.

Assay [3] relates to Fmr1 gene-deficient mouse. Briefly: Audiogenic seizure test in Fmr1 gene-deficient mouse model. To be noted: for Percent seized / Percent survival / Time to seizure occurrence / Time to respiratory arrest: 30 minutes before the test; for Time to seizure occurrence: 135 dB sound, 300 seconds if seizure does not occur; for Time to respiratory arrest: 300 seconds if mouse survives without respiratory arrest; for Median seizure score (seizure intensity level): compared to the vehicle administration group, score 0-5. As to the method: Male FVB.129P2-Pde6b^+ Tyr^c-ch Fmr1^tm1Cgr/J gene-deficient mice were purchased from Jackson Laboratories, and audiogenic seizure experiments were performed at 3 weeks of age. After purchase, the experimental animals were maintained under a controlled lighting environment (12 hours lighting/12 hours non-lighting) and maintained at a temperature of 20-23° C. and about 50% relative humidity. Food and water were provided ad libitum. Mice were randomly divided into groups. The test was carried out under lighting.
MPEP (2-methyl-6-(phenylethynyl)pyridine) HCl was used as a positive control, dissolved in sterile injectable saline, and administered intraperitoneally at a dose of 30 mg/kg. MPEP was prepared at a volume of 10 ml/kg and administered 30 minutes before the test.
Test Compound was dissolved in 30% PEG 300, and two doses of 10 mg/kg and 20 mg/kg were used, Test Compound was prepared at a volume of 10 ml/kg and administered intraperitoneally 30 minutes before the test. As a negative control, a vehicle (30% PEG 300) was administered.
Vehicle, MPEP or Test Compound was administered to mice of 21 days of age 30 minutes before the test. Mice were placed in a Plexiglas chamber for 15 seconds and exposed to 135 decibels (dB) of sound. During the test for 5 minutes, the mice were scored as following criteria based on the reaction of the mouse, the time required until the reaction and the intensity of the seizure.
1: Wild running and jumping
The following endpoints were measured and observed, and in the case of animals that had no reaction, the time to reaction was set to 300 seconds for convenience in analysis.
2. Time to respiratory arrest (300 seconds if mouse survives without respiratory arrest)
Data were analyzed by ANOVA, and if appropriate, Fisher PLSD post-hoc analysis was performed. The average seizure intensity was analyzed non-parametrically. The effect was defined as significant when p<0.05. Results are represented as mean values ±standard error.

[4] abbreviates: 20 mg/kg i.p. once a day, compared with the vehicle administration group.

With `NC(=O)O[C@@H](Cn1ncnn1)c1ccccc1Cl` [Test Compound, Carbamic acid (R)-1-(2-chlorophenyl)-2-tetrazol-2-yl-ethyl ester], in assay [1], the “Locomotor activity (total distance traveled)” value is “significantly decreased” and the Rearing activity result was “decreased”. Also, in assay [2] (10 mg/kg i.p. once a day, compared with the vehicle administration group), the “Rate of freezing in cue test, while the stimulus signal was given” value was “significantly increased”. Moreover, in assay [2] (10 mg/kg i.p. once a day), the “Freezing during contextual fear conditioning test” value is listed as “significantly increased”. Moreover, in assay [2] (setting [4]), the “Freezing in cue test, after the stimulus signal” value is on record as “significant increase” and the “Rate of freezing in cue test, while the stimulus signal was given” value is “significantly increased”. The “Freezing during contextual fear conditioning test” value in assay [2] (20 mg/kg i.p. once a day) is listed as “significantly increased”. Moreover, in assay [3] (10 mg/kg i.p.), the Percent seized result is “No seizures occurred”, the Percent survival turned out to be 100%, the “Time to seizure occurrence” value was found to be 300 s and the “Time to respiratory arrest” value came to 300 s. Moreover, in assay [3] (10 mg/kg i.p.), the “Median seizure score (seizure intensity level)” value (shortened to “Median seizure score”) is recorded as “significantly reduced”. In addition, in assay [3] (20 mg/kg i.p.), the Percent seized entry is reported as “No seizures occurred”, the Percent survival is reported as 100%, the “Time to seizure occurrence” value was 300 s and the “Time to respiratory arrest” value was found to be 300 s. Besides, the “Median seizure score” value in assay [3] (20 mg/kg i.p.) is “significantly reduced”.
For `Cc1cccc(C#Cc2ccccc2)n1` [MPEP, 2-methyl-6-(phenylethynyl)pyridine, reference compound], in assay [3] (30 mg/kg i.p.), the Percent seized result is given as “No seizures occurred”, the Percent survival worked out at 100%, the “Time to seizure occurrence” value worked out at 300 s and the “Time to respiratory arrest” value is 300 s. Moreover, the “Median seizure score” value in assay [3] (30 mg/kg i.p.) is “significantly reduced”.
